Data from the supplement of paper PMC10307832.

Columns and labels:
Assay in all cases: relative viability (nuclei count vs DMSO), 5 days (fraction); higher = more cells survive
Entinostat + Olaparib = compound: Nc1ccccc1NC(=O)c1ccc(CNC(=O)OCc2cccnc2)cc1 [Entinostat] + O=C(c1cc(Cc2n[nH]c(=O)c3ccccc23)ccc1F)N1CCN(C(=O)C2CC2)CC1 [Olaparib] (partner 8 µM)
In short: (§1)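 Relative viability was taken as the ratio of nuclei in treated wells to nuclei in vehicle wells. Lung cancer cell lines in 1536-well plates received compounds by pin tool one day after seeding, either one drug alone or a fixed anchor-drug dose plus five library-drug doses (not always all listed) in √10 steps. Nuclei were counted on 4× images after 5 days of treatment, and values are medians of duplicate plates.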

SGI-1776 + OSI-027 = compound: CN1CCC(CNc2ccc3ncc(-c4cccc(OC(F)(F)F)c4)n3n2)CC1 [SGI-1776] + COc1cccc2cc(-c3nc([C@H]4CC[C@H](C(=O)O)CC4)n4ncnc(N)c34)[nH]c12 [OSI-027] (partner 0.5 µM)
In short: as §1

SGI-1776 + Olaparib = compound: CN1CCC(CNc2ccc3ncc(-c4cccc(OC(F)(F)F)c4)n3n2)CC1 [SGI-1776] + O=C(c1cc(Cc2n[nH]c(=O)c3ccccc23)ccc1F)N1CCN(C(=O)C2CC2)CC1 [Olaparib] (partner 8 µM)
In short: as §1

Entinostat + Pictilisib = compound: Nc1ccccc1NC(=O)c1ccc(CNC(=O)OCc2cccnc2)cc1 [Entinostat] + CS(=O)(=O)N1CCN(Cc2cc3nc(-c4cccc5[nH]ncc45)nc(N4CCOCC4)c3s2)CC1 [Pictilisib] (partner 1 µM)
In short: as §1

Cell Line	relative viability (Entinostat + Olaparib; first compound 0.02 µM)	relative viability (Entinostat + Olaparib; first compound 0.06325 µM)	relative viability (Entinostat + Olaparib; first compound 0.2 µM)	relative viability (Entinostat + Olaparib; first compound 0.6325 µM)	relative viability (Entinostat + Olaparib; first compound 2 µM)	relative viability (SGI-1776 + OSI-027; first compound 0.08 µM)	relative viability (SGI-1776 + OSI-027; first compound 0.8 µM)	relative viability (SGI-1776 + OSI-027; first compound 2.53 µM)	relative viability (SGI-1776 + OSI-027; first compound 8 µM)	relative viability (SGI-1776 + Olaparib; first compound 0.08 µM)	relative viability (SGI-1776 + Olaparib; first compound 0.8 µM)	relative viability (SGI-1776 + Olaparib; first compound 2.53 µM)	relative viability (SGI-1776 + Olaparib; first compound 8 µM)	relative viability (Entinostat + Pictilisib; first compound 0.02 µM)	relative viability (Entinostat + Pictilisib; first compound 0.06325 µM)	relative viability (Entinostat + Pictilisib; first compound 0.2 µM)	relative viability (Entinostat + Pictilisib; first compound 0.6325 µM)	relative viability (Entinostat + Pictilisib; first compound 2 µM)
NCI-H522	0.58	0.713	0.582	0.686	0.494	0.713	0.811	0.749	0.569	0.612	0.52	0.623	0.551	–	–	–	–	–
LOU-NH91	0.863	0.904	0.919	0.806	0.676	0.777	0.726	0.826	0.56	0.968	0.986	0.957	0.773	0.522	0.529	0.549	0.452	0.394
NCI-H1355	0.669	0.698	0.647	0.535	0.356	0.46	0.486	0.402	0.305	0.749	0.695	0.78	0.687	0.473	0.411	0.389	0.254	0.201
NCI-H322M	0.722	0.952	0.887	0.815	0.618	0.514	0.54	0.661	0.475	0.871	0.772	0.812	0.697	0.513	0.595	0.561	0.559	0.295
NCI-H1395	0.445	0.466	0.423	0.398	0.408	0.78	0.582	0.627	0.448	0.473	0.452	0.438	0.347	0.598	0.758	0.64	0.67	0.487
NCI-H2023	0.327	0.253	0.185	0.0826	0.0815	0.415	0.388	0.319	0.167	0.499	0.516	0.51	0.347	0.173	0.182	0.146	0.126	0.0933
NCI-H1666	0.81	0.759	0.723	0.669	0.539	0.953	0.853	0.759	0.674	0.794	0.782	0.838	0.729	0.44	0.403	0.34	0.258	0.258
HARA	0.761	0.944	0.675	0.876	0.314	0.681	0.638	0.64	0.412	1.09	0.986	0.667	0.57	0.428	0.533	0.442	0.368	0.219
NCI-H1944	0.373	0.323	0.216	0.177	0.172	0.436	0.428	0.344	0.342	0.411	0.406	0.422	0.354	0.332	0.398	0.336	0.268	0.25
NCI-H2405	0.843	0.895	0.861	0.72	0.623	0.643	0.659	0.549	0.568	0.828	0.879	0.789	0.712	0.483	0.678	0.545	0.393	0.222
201T	0.838	0.775	0.694	0.489	0.459	0.823	0.703	0.708	0.6	0.856	0.893	0.854	0.9	0.708	0.662	0.625	0.532	0.467
PC-3 [JPC-3]	1.14	1.12	1.04	0.663	0.456	0.791	0.818	0.74	0.672	1.13	1.14	1.11	0.797	0.684	0.746	0.623	0.387	0.306
Calu-6	0.603	0.539	0.637	0.381	0.323	–	–	–	–	0.61	0.559	0.642	0.474	0.814	0.934	0.864	0.615	0.383
NCI-H2342	0.401	0.477	0.447	0.356	0.308	0.671	0.671	0.552	0.622	0.525	0.445	0.454	0.49	–	–	–	–	–
NCI-H1563	–	–	–	–	–	0.749	0.8	0.674	0.614	–	–	–	–	0.721	0.639	0.617	0.684	0.646
IA-LM	0.807	0.845	0.871	0.693	0.536	–	–	–	–	0.97	0.785	0.919	0.846	0.391	0.43	0.508	0.311	0.133
NCI-H1299	1.03	0.923	0.965	0.702	0.585	–	–	–	–	1.01	0.962	1.05	0.897	0.793	0.848	0.63	0.532	0.394
NCI-H1623	–	–	–	–	–	0.459	0.416	0.502	0.427	–	–	–	–	–	–	–	–	–
SW 900	0.857	0.815	0.902	0.616	0.355	0.56	0.689	0.564	0.399	0.792	0.886	1.15	0.636	–	–	–	–	–
NCI-H1648	0.769	0.624	0.673	0.615	0.512	0.233	0.273	0.249	0.238	0.648	0.763	0.761	1.21	–	–	–	–	–
A549	0.332	0.375	0.334	0.258	0.232	–	–	–	–	0.39	0.395	0.389	0.312	0.551	0.555	0.451	0.364	0.2
